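Cultured in 96-well plates, cells were exposed to test compound for 48 hours across five concentrations. GI50 = concentration required for 50% inhibition of growth.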 The source made the active and inactive calls. No stated cut-off is given here; in the data, active = GI50 up to about 1.1 µM and inactive = higher.
Key:
Experiment in all cases: NCI anticancer screen, dose series, 48 h
ACHN = test system: ACHN
HCC 2998 = test system: HCC 2998
HCT-15 = test system: HCT-15
HL-60 = test system: HL-60
HT-29 = test system: HT-29
MCF7 = test system: MCF7
MDA-N = test system: MDA-N
MOLT-4 = test system: MOLT-4
NCI/ADR-RES = test system: NCI/ADR-RES
PC-3 = test system: PC-3
SF-268 = test system: SF-268
SK-MEL-2 = test system: SK-MEL-2
SR = test system: SR
TK-10 = test system: TK-10
U-251 = test system: U-251
UO-31 = test system: UO-31
BT-549 = test system: BT-549
LOX IMVI = test system: LOX IMVI
M14 = test system: M14

C#CC(C)(C)Oc1cc(OC)c2c(=O)c3ccccc3n(C)c2c1
GI50 (ACHN): 12.7 µM (inactive)
GI50 (HCC 2998): 30.7 µM (inactive)
GI50 (HCT-15): 10.9 µM
GI50 (HL-60): 10.9 µM (inactive)
GI50 (HT-29): 4.81 µM (inactive)
GI50 (MCF7): 20.1 µM (inactive)
GI50 (MDA-N): 12.6 µM (inactive)
GI50 (MOLT-4): 3.85 µM (inactive)
GI50 (NCI/ADR-RES): 13.8 µM (inactive)
GI50 (PC-3): 13.8 µM (inactive)
GI50 (SF-268): 11.6 µM (inactive)
GI50 (SK-MEL-2): 16.3 µM (inactive)
GI50 (SR): 2.83 µM (inactive)
GI50 (TK-10): 23.6 µM (inactive)
GI50 (U-251): 30.3 µM (inactive)
GI50 (UO-31): 3.87 µM (inactive)

O=C1Nc2ccc(Br)cc2/C1=C/C(=O)c1ccccc1
GI50 (ACHN): 1.87 µM (inactive)
GI50 (BT-549): 8.59 µM (inactive)
GI50 (HCC 2998): 15.1 µM (inactive)
GI50 (HCT-15): 2.49 µM
GI50 (HL-60): 2.83 µM (inactive)
GI50 (HT-29): 1.59 µM (inactive)
GI50 (LOX IMVI): 1.93 µM (inactive)
GI50 (M14): 11.1 µM (inactive)
GI50 (MCF7): 4.18 µM (inactive)
GI50 (MOLT-4): 2.64 µM (inactive)
GI50 (PC-3): 9.38 µM (inactive)
GI50 (SF-268): 19.5 µM (inactive)
GI50 (SK-MEL-2): 16 µM (inactive)
GI50 (SR): 4.37 µM (inactive)
GI50 (TK-10): 1.82 µM (inactive)
GI50 (U-251): 17.9 µM (inactive)
GI50 (UO-31): 2.49 µM (inactive)

CCOC(=O)N(CC)c1c(C(F)(F)F)cc(-c2ccccc2)[nH]c1=O
GI50 (ACHN): 58.6 µM (inactive)
GI50 (BT-549): 75 µM (inactive)
GI50 (HCC 2998): 54.2 µM (inactive)
GI50 (HCT-15): 40.6 µM
GI50 (HL-60): 13.6 µM (inactive)
GI50 (HT-29): 61.1 µM (inactive)
GI50 (LOX IMVI): 68.4 µM (inactive)
GI50 (M14): 66.4 µM (inactive)
GI50 (MCF7): 44 µM (inactive)
GI50 (MDA-N): 23.3 µM (inactive)
GI50 (MOLT-4): 25.8 µM (inactive)
GI50 (NCI/ADR-RES): 24.7 µM (inactive)
GI50 (PC-3): 46.5 µM (inactive)
GI50 (SK-MEL-2): 72.6 µM (inactive)
GI50 (TK-10): 97.9 µM (inactive)
GI50 (U-251): 55.2 µM (inactive)
GI50 (UO-31): 56.1 µM (inactive)

CC1=C/C(=N\NS(=O)(=O)c2ccc([N+](=O)[O-])cc2)CC(C)(C)C1
GI50 (ACHN): 54.6 µM (inactive)
GI50 (HCC 2998): > 100 µM (inactive)
GI50 (HCT-15): 49.8 µM
GI50 (HL-60): > 100 µM (inactive)
GI50 (LOX IMVI): > 100 µM (inactive)
GI50 (M14): > 100 µM (inactive)
GI50 (MCF7): > 100 µM (inactive)
GI50 (MDA-N): > 100 µM (inactive)
GI50 (MOLT-4): > 100 µM (inactive)
GI50 (NCI/ADR-RES): 93.5 µM (inactive)
GI50 (PC-3): > 100 µM (inactive)
GI50 (SF-268): 83.6 µM (inactive)
GI50 (SK-MEL-2): > 100 µM (inactive)
GI50 (SR): 79.6 µM (inactive)
GI50 (TK-10): > 100 µM (inactive)
GI50 (U-251): 97.1 µM (inactive)
GI50 (UO-31): 80.7 µM (inactive)

CN1c2ccccc2NC(CC(=O)O)C2CC=CN21 (centres undefined)
GI50 (ACHN): > 100 µM (inactive)
GI50 (HCT-15): > 100 µM
GI50 (HL-60): > 100 µM (inactive)
GI50 (HT-29): > 100 µM (inactive)
GI50 (LOX IMVI): > 100 µM (inactive)
GI50 (M14): > 100 µM (inactive)
GI50 (MOLT-4): > 100 µM (inactive)
GI50 (SF-268): > 100 µM (inactive)
GI50 (SK-MEL-2): > 100 µM (inactive)
GI50 (TK-10): > 100 µM (inactive)
GI50 (U-251): > 100 µM (inactive)
GI50 (UO-31): > 100 µM (inactive)

O=c1oc2ccccc2c(O)c1C1c2c(c3ccccc3oc2=O)Oc2c1c(=O)oc1ccccc21
GI50 (ACHN): 28.4 µM (inactive)
GI50 (BT-549): 27.5 µM (inactive)
GI50 (HCC 2998): 18.7 µM (inactive)
GI50 (HCT-15): 27.9 µM
GI50 (HT-29): 30.2 µM (inactive)
GI50 (LOX IMVI): 38.5 µM (inactive)
GI50 (MDA-N): 18.9 µM (inactive)
GI50 (MOLT-4): 47.5 µM (inactive)
GI50 (NCI/ADR-RES): 60.7 µM (inactive)
GI50 (PC-3): 50.6 µM (inactive)
GI50 (SF-268): 29.4 µM (inactive)
GI50 (SK-MEL-2): 51.6 µM (inactive)
GI50 (TK-10): 51.9 µM (inactive)
GI50 (U-251): 38.1 µM (inactive)
GI50 (UO-31): 19 µM (inactive)

CC1=NNC(=O)C1C1CC(c2c[nH]c3ccccc23)=NNC1=O (centres undefined)
GI50 (ACHN): > 100 µM (inactive)
GI50 (BT-549): > 100 µM (inactive)
GI50 (HCT-15): > 100 µM
GI50 (HL-60): > 100 µM (inactive)
GI50 (HT-29): > 100 µM (inactive)
GI50 (M14): > 100 µM (inactive)
GI50 (MDA-N): > 100 µM (inactive)
GI50 (MOLT-4): > 100 µM (inactive)
GI50 (NCI/ADR-RES): > 100 µM (inactive)
GI50 (PC-3): > 100 µM (inactive)
GI50 (SF-268): > 100 µM (inactive)
GI50 (SK-MEL-2): > 100 µM (inactive)
GI50 (TK-10): > 100 µM (inactive)
GI50 (U-251): > 100 µM (inactive)
GI50 (UO-31): > 100 µM (inactive)

COc1cc2c(c(OC)c1OC)-c1ccc(SC)cc1C(O)CC2 (centres undefined)
GI50 (ACHN): < 0.01 µM (active)
GI50 (HCC 2998): < 0.01 µM (active)
GI50 (HCT-15): < 0.01 µM
GI50 (HL-60): < 0.01 µM (active)
GI50 (LOX IMVI): < 0.01 µM (active)
GI50 (M14): < 0.01 µM (active)
GI50 (MCF7): < 0.01 µM (active)
GI50 (MDA-N): 0.19 µM (active)
GI50 (MOLT-4): < 0.01 µM (active)
GI50 (PC-3): < 0.01 µM (active)
GI50 (SF-268): < 0.01 µM (active)
GI50 (SK-MEL-2): > 100 µM (inactive)
GI50 (SR): < 0.01 µM (active)
GI50 (TK-10): 41 µM (inactive)

COc1cc(C2C3C=CC=C4CC=CC(=C43)C3CCC(=O)N32)cc(OC)c1OC (centres undefined)
GI50 (ACHN): > 100 µM (inactive)
GI50 (HCT-15): > 100 µM
GI50 (HL-60): 64.1 µM (inactive)
GI50 (HT-29): 61.5 µM (inactive)
GI50 (LOX IMVI): > 100 µM (inactive)
GI50 (M14): > 100 µM (inactive)
GI50 (MCF7): > 100 µM (inactive)
GI50 (MOLT-4): > 100 µM (inactive)
GI50 (NCI/ADR-RES): 13.8 µM (inactive)
GI50 (PC-3): 59 µM (inactive)
GI50 (SF-268): > 100 µM (inactive)
GI50 (SK-MEL-2): > 100 µM (inactive)
GI50 (SR): > 100 µM (inactive)
GI50 (TK-10): > 100 µM (inactive)
GI50 (U-251): > 100 µM (inactive)
GI50 (UO-31): 48.9 µM (inactive)
